Data reported in patent publication US11331328B2, “Compositions and methods for inhibiting antiapoptotic Bcl-2 proteins as anti-aging agents” (priority 2014, dated 2022).

Assays:
[1] = system: senescent HSCs induced by TBI
Description: The femora and tibiae were harvested from mice immediately after they were euthanized. BM cells were flushed from the bones into HBSS containing 2% FCS using a 21-gauge needle and syringe. […] The labeled mature lymphoid and myeloid cells were depleted twice by incubation with goat anti-rat IgG paramagnetic beads (Dynal Inc, Lake Success, N.Y., USA) at a bead:cell ratio of approximately 4:1. Cells binding the paramagnetic beads were removed with a magnetic field. The negatively isolated Lin^− cells were washed twice with 2% FCS/HBSS and resuspended in complete medium (RPMI1640 medium supplemented with 10% FCS, 2 mM L-glutamine, 10 μM HEPES buffer, and 100 U/ml penicillin and streptomycin) at 1×10^6/ml. HSCs (CD150^+CD48^− LSK^+ cells) were sorted by a BD FACSAria II cell sorter (BD Biosciences, San Jose, Calif.) after Lin^− cells were preincubated with anti-CD16/32 antibody to block the Fcγ receptors and then stained with anti-Sca1-PE, c-Kit-APC-Cy7, CD150-APC and CD48-Pacific blue antibodies. Dead cells were excluded by gating out the cells that stained positive with PI.
Feeder cell stromal layers were prepared by seeding 10^3/well FBMD-1 stromal cells in each well of flat-bottom 96-well plates (Falcon, Lincoln Park, N.J.). One week later, BM-MNCs resuspended in CAFC medium (Iscove's MDM supplemented with 20% horse serum, 10^−5 M hydrocortisone, 10^−5 M 2-mercaptoethanol, 100 U/ml penicillin, and 100 μg/ml streptomycin) after various treatments described above were overlaid on these stromal layers in 6 dilutions at 3-fold intervals. Twenty wells were plated for each dilution to allow limiting dilution analysis of the precursor cells forming hematopoietic cell clones under the stromal layer. Cultures were fed weekly by changing one-half of the media. The frequencies of CAFC were determined on days 14 and 35. Wells were scored positive if at least one phase-dark hematopoietic clone (containing 5 or more cells) was seen. The frequency of CAFC was then calculated by using Poisson statistics as described previously^9, 10. […]

[2] = system: IR-induced senescent WI-38 cells (SC); assay: Cell viability (PI flow cytometry), LD50 in IR-induced senescent WI-38 cells; assay type: cell-based, human
Description: Mouse embryonic fibroblasts (MEF) were isolated from mouse embryos as described^1. All cells were cultured in a complete medium (CM) (Dulbecco's Modified Eagle Medium supplemented with 10% fetal bovine serum [FBS], 100 U/ml penicillin, and 100 μg/ml streptomycin [all from Atlanta Biologicals, Norcross, Ga., and USA]) in a humidified incubator at 37° C. and 5% CO2. Low passages of WI-38 cells (<25), IMR-90 (<25), REC cells (<25) and MEF (<3) were used as non-senescent controls or for induction of senescence to avoid replicative senescence. […] To induce senescence by expression of oncogenic Ras (Ras^V12), WI-38 cells were infected with the retroviruses pBabe-H-Ras or pBabe-puro (control) (Addgene, Cambridge, Mass., UAS)^2, 3. […] Senescent cells were maintained in culture for a few days, changing the culture medium every 3 days until use. For in vitro cell culture experiments, we usually repeated the experiments for at least three times to ensure the reproducibility of the data. In addition, the repeats of the experiments for three times will allow us to obtain 3 independent observations for statistical analysis.
Flow cytometry: Non-senescent and senescent cells were seeded into wells of 24- or 48-well at about 70% of confluence. […] Both quiescent non-senescent cells and permanently growth arrested senescent cells were treated with vehicle (0.1% DMSO or PBS) or increasing concentrations of the compounds listed in Table 1 for various durations. […] After incubated with propidium iodide (PI 100 ng/ml) in PBS at room temperature for 1 min, cells were centrifuged at 1200 rpm for 6 min and then resuspended in PBS with 2% of FBS for analysis by a BD LSR II flow cytometer (BD Biosciences, San Jose, Calif., USA). Viable cells (PI^− cells) were numerated by flow cytometry at a constant flow rate and calculated as a percentage of control cells treated with vehicle using the formula: percentage of control=(Ndrug/NC)×100, where Ndrug and NC represent the absolute number of PI^− viable cells of drug-treated and vehicle-treated cells, respectively.
MTT (3-[4,5-dimethylthiazol-2-yl]-2,5 diphenyl tetrazolium bromide) assay: Cells were harvested, washed and resuspended in CM and added to wells of 24- or 48-well plates as described above. […] After 4 h at 37° C., the formazan was solubilized by lysing the cells with 300 μl of DMSO. Absorbance of formazan was measured at 595 nm using a Microplate Reader (BioTek, Winooski, Vt., USA). Cell viability was calculated in the method as previously described^4.
Trypan blue exclusion assay: Cells were harvested, washed and resuspended in CM and added to wells of a 6-well plate as described above. […] Living cells stained negative for trypan blue and were counted under light microscopy.
Briefly, Probit (set as y) was determined by looking up their correspondence to the % responded in Finney's table. The log of the compound concentrations was used as x. By fitting a line of regression, we produce the formula y=ax+b.

[3] = system: IR-induced WI-38 SCs; assay: Apoptosis analysis (Annexin V/PI flow cytometry); assay type: cell-based, human; conditions: 1.25 μM ABT263, 24 h, with or without 20 μM Q-VD-OPh
Description: Cells were seeded into a 6-well plate at 4-6×10^5 cells/well. […] The cells were harvested 24 h after treatment and resuspended in 1× annexin V binding buffer (BD Biosciences) at 1×10^6 cells/ml. An aliquot (100 μl) of the cell suspension was incubated with 5 μl of Annexin V-FITC (BD Biosciences) or PI (1 mg/ml) for 15 min at room temperature in the dark. After addition of 400 μl of 1× binding buffer, 10,000 cells per sample were analyzed by a BD LSR H flow cytometer (BD Biosciences).

[4] = system: bone marrow HSCs; assay: Single HSC culture clonogenic activity in vitro; assay type: cell-based, mouse; conditions: 1.25 μM ABT263
Description: Freshly prepared medium was added every 3 days, Two weeks later, the numbers of cells produced by each HSC were counted.

With CC1(C)CCC(c2ccc(Cl)cc2)=C(CN2CCN(c3ccc(C(=O)NS(=O)(=O)c4ccc(N[C@H](CCN5CCOCC5)CSc5ccccc5)c(S(=O)(=O)C(F)(F)F)c4)cc3)CC2)C1 [ABT263, navitoclax] the “HSC myeloid skewing, quiescence and persistent DNA damage” value ([1]; TBI mice, Ki67, γH2AX, BMT) was “attenuated IR-induced HSC myeloid skewing and disruption of HSC quiescence, and reduced HSCs with persistent DNA damage”, the “BM HSC and HPC numbers” value ([1]; after ABT263 treatment of CTL or TBI mice) was “did not quantitatively reduce BM HSCs or hematopoietic progenitor cells (HPCs)” and the “clonogenicity (CAFC) and long-term engraftment ability of HSCs” value ([1]; day-35 CAFC, competitive and serial BMT) was “significantly improved the clonogenicity and long-term engraftment ability of HSCs”. The IC50 ([2]; Homo sapiens, WI-38 fibroblasts, IR-induced senescent, LD50 by Probit Analysis, read-out: LD50 (μM) for senescent cells (SC)) was 0.61 µM, the “LD50” value ([2]; Table 2, IR-SC WI38 cells) was 0.61 µM and the “viable cells by MTT assay and trypan blue exclusion test” value ([2]; senescent WI-38, increasing concentrations, 72 h) was “can dose-dependently kill senescent WI-38 fibroblasts”. The SCs killed ([2]; ~24 h, 1.25 μM ABT263, IR-SC WI-38) was 70-80%, the apoptosis induction [3] was “selectively killed SCs by inducing apoptosis, which was abrogated by QVD” and the “clonogenicity of BM HSCs in vitro” value ([4]; HSCs from control unirradiated mice) was “had little effect on the clonogenicity of BM HSCs from control unirradiated mice”. The “clonogenicity of BM HSCs in vitro” value ([4]; HSCs from irradiated mice) was “markedly reduced the clonogenicity of BM HSCs from irradiated mice”.
